Assay results reported in PubChem BioAssay AID1259407 (Chemical Carcinogenesis Research Information System (CCRIS), 2018).
Active and inactive are the calls of the source. No rule for the calls is given here.

Tested on: CCRIS mutagenicity, Ames/micronucleus/aberration tests
Assay: CCRIS mutagenicity studies

In the case of `CN(C)N=O`, the mutagenic call (Test System: AMES SALMONELLA TYPHIMURIUM, Strain/Indicator: TA1535ER, Metabolic Activation: NONE, Method: STANDARD PLATE) is reported as “inactive; negative”, the mutagenic call (Test System: AMES SALMONELLA TYPHIMURIUM, Strain/Indicator: TA1975, Metabolic Activation: RAT, LIVER, S-9, AROCLOR 1254, Method: PREINCUBATION) is reported as “active; positive” and the mutagenic call (Test System: AMES SALMONELLA TYPHIMURIUM, Strain/Indicator: TA2410, Metabolic Activation: NONE, Method: HOST-MEDIATED) is reported as “active; positive”. For the same compound, the mutagenic call (Test System: AMES SALMONELLA TYPHIMURIUM, Strain/Indicator: TA2638, Metabolic Activation: NONE, Method: PREINCUBATION) was “active; positive”, the mutagenic call (Test System: AMES SALMONELLA TYPHIMURIUM, Strain/Indicator: TA2659, Metabolic Activation: NONE, Method: PREINCUBATION) was “inactive; negative” and the mutagenic call (Test System: AMES SALMONELLA TYPHIMURIUM, Strain/Indicator: TA2678, Metabolic Activation: NONE, Method: HOST-MEDIATED) was “active; positive”. The mutagenic call (Test System: AMES SALMONELLA TYPHIMURIUM, Strain/Indicator: YG7100, Metabolic Activation: S-9, Method: PREINCUBATION) was “active; positive”, the mutagenic call (Test System: AMES SALMONELLA TYPHIMURIUM, Strain/Indicator: YG7104, Metabolic Activation: RAT LIVER S-9, ETHANOL (4%), Method: PREINCUBATION) was “active; positive” and the mutagenic call (Test System: AMES SALMONELLA TYPHIMURIUM, Strain/Indicator: YG7104, Metabolic Activation: S-9, Method: PREINCUBATION) was “active; positive”. The mutagenic call (Test System: AMES SALMONELLA TYPHIMURIUM, Strain/Indicator: YG7104ER, Metabolic Activation: NONE, Method: STANDARD PLATE) was “active; positive”, the mutagenic call (Test System: AMES SALMONELLA TYPHIMURIUM, Strain/Indicator: YG7108, Metabolic Activation: RAT LIVER S-9, ETHANOL (4%), Method: PREINCUBATION) was “active; positive” and the mutagenic call (Test System: AMES SALMONELLA TYPHIMURIUM, Strain/Indicator: YG7108, Metabolic Activation: S-9, Method: PREINCUBATION) was “active; positive”. The mutagenic call (Test System: AMES SALMONELLA TYPHIMURIUM, Strain/Indicator: YG7108E, Metabolic Activation: NONE, Method: STANDARD PLATE) was “inactive; negative”, the mutagenic call (Test System: AMES SALMONELLA TYPHIMURIUM, Strain/Indicator: YG7108ER, Metabolic Activation: NONE, Method: STANDARD PLATE) was “active; positive” and the mutagenic call (Test System: AMES SALMONELLA TYPHIMURIUM, Strain/Indicator: YG7108R, Metabolic Activation: NONE, Method: STANDARD PLATE) was “inactive; negative”. For the same compound, the mutagenic call (Test System: AMES SALMONELLA TYPHIMURIUM, Strain/Indicator: YG7112, Metabolic Activation: S-9, Method: PREINCUBATION) was “active; positive”, the mutagenic call (Test System: AMES SALMONELLA TYPHIMURIUM, Strain/Indicator: YG7113, Metabolic Activation: S-9, Method: PREINCUBATION) was “active; positive” and the mutagenic call (Test System: AMES SALMONELLA TYPHIMURIUM, Strain/Indicator: YG7119, Metabolic Activation: S-9, Method: PREINCUBATION) was “inactive; negative”. The mutagenic call (Test System: CHINESE HAMSTER V-79, Strain/Indicator: V-79 (HPRT)/6-THIOGUANINE, Metabolic Activation: RAT, HEPATOCYTES) was “active; positive”, the mutagenic call (Test System: CHINESE HAMSTER V-79, Strain/Indicator: V-79 (HPRT)/6-THIOGUANINE, Metabolic Activation: RAT, HEPATOMA, H4IIE CELLS) was “active; positive” and the mutagenic call (Test System: CHINESE HAMSTER V-79, Strain/Indicator: V-79 (HPRT)/6-THIOGUANINE, Metabolic Activation: RAT, LIVER, S-9, AROCLOR 1254) was “active; positive”. For the same compound, the mutagenic call (Test System: CHINESE HAMSTER V-79, Strain/Indicator: V-79/6-THIOGUANINE, Metabolic Activation: NONE, Method: STANDARD PLATE) was “inactive; negative”, the mutagenic call (Test System: CHINESE HAMSTER V-79, Strain/Indicator: V-79/6-THIOGUANINE, Metabolic Activation: RAT, HEPATOCYTES, BUTYLATED HYDROXYANISOLE, Method: STANDARD PLATE) was “active; positive” and the mutagenic call (Test System: CHINESE HAMSTER V-79, Strain/Indicator: V-79/6-THIOGUANINE, Metabolic Activation: RAT, HEPATOCYTES, Method: STANDARD PLATE) was “active; positive”. For the same compound, the mutagenic call (Test System: CHINESE HAMSTER V-79, Strain/Indicator: V-79/6-THIOGUANINE, Metabolic Activation: RAT, LIVER, S-15, PHENOBARBITAL, Method: STANDARD PLATE) was “active; positive”, the mutagenic call (Test System: CHINESE HAMSTER V-79, Strain/Indicator: V-79/8-AZAGUANINE, Metabolic Activation: RAT, LIVER, S-15, PHENOBARBITAL, Method: STANDARD PLATE) was “active; positive” and the mutagenic call (Test System: CHINESE HAMSTER V-79, Strain/Indicator: V-79/OUABAIN, Metabolic Activation: CELL-MEDIATED, Method: STANDARD PLATE) was “active; positive”. For the same compound, the mutagenic call (Test System: CHINESE HAMSTER V-79, Strain/Indicator: V-79/OUABAIN, Metabolic Activation: FREE MICROSOMES M, LIVER, Method: STANDARD PLATE) was “active; positive”, the mutagenic call (Test System: CHINESE HAMSTER V-79, Strain/Indicator: V-79/OUABAIN, Metabolic Activation: HAMSTER, HEPATOCYTES, Method: CELL-MEDIATED) was “active; positive” and the mutagenic call (Test System: CHINESE HAMSTER V-79, Strain/Indicator: V-79/OUABAIN, Metabolic Activation: NONE, Method: STANDARD PLATE) was “inactive; negative”.
